# Reference: PMC8292346, “Dysfunction of the key ferroptosis-surveilling systems hypersensitizes mice to tubular necrosis during acute kidney injury” (Nature Communications, 2021)
# Several values for one entry are separate records, joined by “and”; a condition that tells them apart may be missing. Equal values may be shown once. Read-outs that look alike come from different tables or passages of the source.
# Columns and labels:
# [1] = Pharmacokinetic analysis of Nec-1f in mice (tissue PK); assay type: in vivo, C57BL/6 mice; conditions: individual mice; for concentration at 1440 min / concentration at 0 min / concentration at 5 min / concentration at 15 min / concentration at 120 min / concentration at 240 min / concentration at 360 min / concentration at 480 min / concentration at 60 min: male, C57BL/6, mouse, intraperitoneal; for concentration at 5 min: sample collection 5 min; for concentration at 15 min: sample collection 15 min; for concentration at 120 min: sample collection 120 min; for concentration at 60 min: sample collection 60 min
# [2] = target: Potassium Channel hERG (human) (Homo sapiens, UniProt Q12809); experiment: Off-target radioligand binding screen; conditions: Nec-1f 10 µM
# [3] = target: 5-HT3(h) (Homo sapiens, UniProt P46098); experiment: Off-target radioligand binding screen; conditions: read-out: 5-HT3(h) ($): inhibition of radioligand binding
# [4] = target: D1(h) (Homo sapiens, UniProt P21728); experiment: Off-target radioligand binding screen; conditions: read-out: D1(h) ($): inhibition of radioligand binding
# [5] = target: α2A(h) (Homo sapiens, UniProt P08913); experiment: Off-target radioligand binding screen; conditions: read-out: α2A(h) ($): inhibition of radioligand binding
# [6] = target: D2S(h) (Homo sapiens, UniProt P14416); experiment: Off-target radioligand binding screen; conditions: read-out: D2S(h) (#): inhibition of radioligand binding
# [7] = tested on: C57BL/6N mice; experiment: Acute oxalate nephropathy (CaOx-induced AKI); assay type: in vivo, mouse; conditions: sodium oxalate, 1.65 mg/kg Nec-1f, individual animals
# [8] = tested on: B6 LysM-GFP mice; experiment: Intravital two-photon imaging of neutrophils in transplanted hearts; assay type: in vivo, mouse; conditions: heart transplantation, recipient mice 2.0 mg/kg body weight
# Experimental: Hearts harvested from wild-type C57BL/6 mice were transplanted into the right neck of syngeneic LysM-GFP hosts, as previously described. […] Intravital two-photon imaging was performed using a custom-built microscope running ImageWarp version 2.1 acquisition software (A&B Software). For time-lapse imaging of cell trafficking, we averaged 15 video-rate frames (0.5 s per slice) during the acquisition. Each plane represents an image of 220 × 240 μm in the x and y dimensions and twenty-one sequential planes were acquired in the z dimension (2.5-μm each). Each individual neutrophil was tracked from its first appearance in the imaging window and followed up to the time point at which it dislocated more than 20 μm from its starting position. Fifty microlitres PBS containing 15 μl 655-nm nontargeted Q-dots (Thermo Fisher Scientific) were injected prior to imaging to visualize coronary vessels and assess whether neutrophils were intravascular or extravascular. The number of extravascular neutrophils was divided by the sum of intravascular and extravascular neutrophils to calculate extravasation. Imaris (Bitplane) was used for multidimensional rendering and manual cell tracking.
# [9] = target: M3(h) (Homo sapiens, UniProt P20309); experiment: Off-target radioligand binding screen; conditions: read-out: M3(h) ($): inhibition of radioligand binding
# [10] = tested on: KV channel; experiment: Off-target radioligand binding screen; conditions: Nec-1f 10 µM
# [11] = liver, liver, read-out: concentration in liver
# [12] = lung, lung, read-out: concentration in lung
# [13] = pancreas, pancreas, read-out: concentration in pancreas
# [14] = plasma, 2 mg/ml, plasma, read-out: concentration in plasma
# [15] = whole blood, 2 mg/ml, blood, read-out: concentration in blood
# Sequence of 5-HT3(h) (P46098 24-478): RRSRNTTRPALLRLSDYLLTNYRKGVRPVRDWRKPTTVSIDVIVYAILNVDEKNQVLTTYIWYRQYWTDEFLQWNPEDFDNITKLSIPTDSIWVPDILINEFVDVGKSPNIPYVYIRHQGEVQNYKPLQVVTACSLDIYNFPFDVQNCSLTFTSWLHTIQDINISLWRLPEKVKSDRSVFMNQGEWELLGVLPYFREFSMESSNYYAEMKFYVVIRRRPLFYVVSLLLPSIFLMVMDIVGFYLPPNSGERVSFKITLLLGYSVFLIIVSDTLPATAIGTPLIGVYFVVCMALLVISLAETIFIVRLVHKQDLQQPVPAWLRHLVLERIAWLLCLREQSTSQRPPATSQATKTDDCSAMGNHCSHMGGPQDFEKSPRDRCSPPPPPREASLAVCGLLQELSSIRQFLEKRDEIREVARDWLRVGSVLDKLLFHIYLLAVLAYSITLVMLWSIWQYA
# Sequence of M3(h) (P20309 whole entry): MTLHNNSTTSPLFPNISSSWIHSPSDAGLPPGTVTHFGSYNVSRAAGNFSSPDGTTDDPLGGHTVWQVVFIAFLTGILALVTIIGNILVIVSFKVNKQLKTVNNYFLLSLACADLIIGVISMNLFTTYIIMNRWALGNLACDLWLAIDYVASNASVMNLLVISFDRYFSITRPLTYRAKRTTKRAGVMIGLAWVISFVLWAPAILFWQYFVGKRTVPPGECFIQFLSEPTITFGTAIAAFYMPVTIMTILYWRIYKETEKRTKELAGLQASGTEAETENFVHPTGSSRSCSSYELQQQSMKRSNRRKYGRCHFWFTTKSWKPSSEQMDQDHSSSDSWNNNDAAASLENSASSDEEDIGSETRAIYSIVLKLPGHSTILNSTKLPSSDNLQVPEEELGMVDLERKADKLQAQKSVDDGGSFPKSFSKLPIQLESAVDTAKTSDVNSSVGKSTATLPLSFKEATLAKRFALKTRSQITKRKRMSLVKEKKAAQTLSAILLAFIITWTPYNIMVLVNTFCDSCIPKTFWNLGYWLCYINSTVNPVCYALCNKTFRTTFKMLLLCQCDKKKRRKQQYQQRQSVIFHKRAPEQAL
# Sequence of Potassium Channel hERG (human) (Q12809 whole entry): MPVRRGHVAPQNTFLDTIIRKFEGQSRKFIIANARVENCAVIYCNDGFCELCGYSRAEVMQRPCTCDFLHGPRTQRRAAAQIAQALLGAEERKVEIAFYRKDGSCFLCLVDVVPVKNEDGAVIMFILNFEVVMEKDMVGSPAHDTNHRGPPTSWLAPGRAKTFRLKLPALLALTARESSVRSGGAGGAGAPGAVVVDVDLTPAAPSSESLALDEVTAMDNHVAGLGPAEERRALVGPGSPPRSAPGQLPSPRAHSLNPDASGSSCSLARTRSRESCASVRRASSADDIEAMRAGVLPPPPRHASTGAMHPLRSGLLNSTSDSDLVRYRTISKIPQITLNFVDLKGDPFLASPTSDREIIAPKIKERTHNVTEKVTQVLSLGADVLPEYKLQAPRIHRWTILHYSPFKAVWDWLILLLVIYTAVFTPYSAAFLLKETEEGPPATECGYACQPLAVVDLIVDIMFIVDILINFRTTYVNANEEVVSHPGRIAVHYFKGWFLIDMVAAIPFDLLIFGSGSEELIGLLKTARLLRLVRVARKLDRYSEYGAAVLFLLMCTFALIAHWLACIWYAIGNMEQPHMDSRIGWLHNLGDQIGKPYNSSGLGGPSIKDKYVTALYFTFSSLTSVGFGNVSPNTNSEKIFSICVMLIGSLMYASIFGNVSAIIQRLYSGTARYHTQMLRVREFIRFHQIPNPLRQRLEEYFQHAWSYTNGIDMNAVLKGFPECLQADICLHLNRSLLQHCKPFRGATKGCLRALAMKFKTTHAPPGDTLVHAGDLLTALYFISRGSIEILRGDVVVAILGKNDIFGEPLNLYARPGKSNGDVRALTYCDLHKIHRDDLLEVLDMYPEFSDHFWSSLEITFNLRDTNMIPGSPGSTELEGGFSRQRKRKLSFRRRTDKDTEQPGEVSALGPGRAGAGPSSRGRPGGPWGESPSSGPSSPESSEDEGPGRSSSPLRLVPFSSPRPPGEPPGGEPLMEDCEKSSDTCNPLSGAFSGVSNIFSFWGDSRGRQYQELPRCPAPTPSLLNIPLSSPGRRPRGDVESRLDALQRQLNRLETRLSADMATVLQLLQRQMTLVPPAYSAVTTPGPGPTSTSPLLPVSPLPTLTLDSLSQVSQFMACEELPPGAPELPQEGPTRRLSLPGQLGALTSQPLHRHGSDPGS
# Sequence of α2A(h) (P08913 whole entry): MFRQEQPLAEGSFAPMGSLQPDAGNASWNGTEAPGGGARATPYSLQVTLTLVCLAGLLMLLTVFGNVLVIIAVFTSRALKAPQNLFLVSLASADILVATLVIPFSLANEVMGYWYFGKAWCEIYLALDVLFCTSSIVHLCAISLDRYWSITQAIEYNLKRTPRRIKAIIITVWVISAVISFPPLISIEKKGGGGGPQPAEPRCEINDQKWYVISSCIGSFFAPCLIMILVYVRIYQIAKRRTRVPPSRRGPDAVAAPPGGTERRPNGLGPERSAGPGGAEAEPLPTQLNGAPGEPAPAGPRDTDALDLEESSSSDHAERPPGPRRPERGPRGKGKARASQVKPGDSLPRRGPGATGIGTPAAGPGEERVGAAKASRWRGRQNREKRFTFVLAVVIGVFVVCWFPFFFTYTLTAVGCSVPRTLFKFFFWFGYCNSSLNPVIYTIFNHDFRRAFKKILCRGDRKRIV
# Sequence of D2S(h) (P14416 1-414 isoform P14416-2): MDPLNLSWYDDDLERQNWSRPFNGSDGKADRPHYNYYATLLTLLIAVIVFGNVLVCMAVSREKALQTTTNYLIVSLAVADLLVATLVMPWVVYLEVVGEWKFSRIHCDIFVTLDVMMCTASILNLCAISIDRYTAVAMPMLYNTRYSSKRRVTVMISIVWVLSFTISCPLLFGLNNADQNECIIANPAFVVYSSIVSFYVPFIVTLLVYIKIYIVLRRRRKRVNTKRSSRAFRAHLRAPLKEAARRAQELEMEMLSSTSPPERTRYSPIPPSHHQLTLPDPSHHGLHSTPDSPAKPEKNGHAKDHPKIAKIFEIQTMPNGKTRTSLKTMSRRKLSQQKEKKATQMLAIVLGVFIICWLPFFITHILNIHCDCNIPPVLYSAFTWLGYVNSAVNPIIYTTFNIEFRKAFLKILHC
# Sequence of D1(h) (P21728 whole entry): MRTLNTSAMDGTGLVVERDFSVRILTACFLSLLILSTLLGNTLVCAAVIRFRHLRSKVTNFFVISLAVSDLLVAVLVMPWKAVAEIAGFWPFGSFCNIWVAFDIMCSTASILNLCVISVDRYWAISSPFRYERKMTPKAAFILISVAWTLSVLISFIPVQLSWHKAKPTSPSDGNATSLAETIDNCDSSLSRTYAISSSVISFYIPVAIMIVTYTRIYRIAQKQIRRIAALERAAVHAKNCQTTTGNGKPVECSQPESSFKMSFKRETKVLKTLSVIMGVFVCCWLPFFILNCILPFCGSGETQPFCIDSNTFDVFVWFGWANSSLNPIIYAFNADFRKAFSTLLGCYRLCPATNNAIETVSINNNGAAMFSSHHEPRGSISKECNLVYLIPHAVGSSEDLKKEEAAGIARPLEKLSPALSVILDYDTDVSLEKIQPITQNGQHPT
compound,measurement,setting,value
CN1C(=O)C(Cc2c[nH]c3c(Cl)cccc23)NC1=S (stereo not shown) [Nec-1f],concentration at 1440 min,"[1]; liver, 2 mg/kg, liver, sample collection 1440 min, read-out: concentration in liver",0 ng/mL
same,concentration at 0 min,"[1]; liver, liver, sample collection 0 min, read-out: concentration in liver",0 ng/mL
same,concentration at 5 min,[1]; [11],202 ng/mL
same,concentration at 15 min,[1]; [11],334 ng/mL
same,concentration at 120 min,[1]; [11],0 ng/mL
same,concentration at 240 min,"[1]; lung, 2 mg/kg, lung, sample collection 240 min, read-out: concentration in lung",0 ng/mL
same,concentration at 360 min,"[1]; lung, 2 mg/kg, lung, sample collection 360 min, read-out: concentration in lung",0 ng/mL
same,concentration at 480 min,"[1]; lung, 2 mg/kg, lung, sample collection 480 min, read-out: concentration in lung",0 ng/mL
same,concentration at 0 min,"[1]; lung, lung, sample collection 0 min, read-out: concentration in lung",0 ng/mL
same,concentration at 5 min,[1]; [12],573 ng/mL
same,concentration at 60 min,[1]; [12],321 ng/mL
same,concentration at 120 min,[1]; [12],50 ng/mL
same,concentration at 1440 min,"[1]; lung, lung, sample collection 1440 min, read-out: concentration in lung",0 ng/mL
same,concentration at 0 min,"[1]; pancreas, pancreas, sample collection 0 min, read-out: concentration in pancreas",0 ng/mL
same,concentration at 5 min,[1]; [13],8950 ng/mL
same,concentration at 15 min,[1]; [13],35200 ng/mL
same,concentration at 120 min,[1]; [13],490 ng/mL
same,concentration at 1440 min,"[1]; pancreas, pancreas, sample collection 1440 min, read-out: concentration in pancreas",0 ng/mL
same,concentration at 240 min,"[1]; plasma, 2 mg/kg, plasma, sample collection 240 min, read-out: concentration in plasma",0 ng/mL
same,concentration at 360 min,"[1]; plasma, 2 mg/kg, plasma, sample collection 360 min, read-out: concentration in plasma",0 ng/mL
same,concentration at 480 min,"[1]; plasma, 2 mg/kg, plasma, sample collection 480 min, read-out: concentration in plasma",0 ng/mL
same,concentration at 1440 min,"[1]; plasma, 2 mg/kg, plasma, sample collection 1440 min, read-out: concentration in plasma",0 ng/mL
same,concentration at 0 min,"[1]; plasma, 2 mg/ml, plasma, sample collection 0 min, read-out: concentration in plasma",0 ng/mL
same,concentration at 5 min,[1]; [14],0 ng/mL
same,concentration at 60 min,[1]; [14],19 ng/mL
same,concentration at 120 min,[1]; [14],0 ng/mL
same,concentration at 240 min,"[1]; whole blood, 2 mg/kg, blood, sample collection 240 min, read-out: concentration in blood",0 ng/mL
same,concentration at 360 min,"[1]; whole blood, 2 mg/kg, blood, sample collection 360 min, read-out: concentration in blood",0 ng/mL
same,concentration at 480 min,"[1]; whole blood, 2 mg/kg, blood, sample collection 480 min, read-out: concentration in blood",0 ng/mL
same,concentration at 0 min,"[1]; whole blood, 2 mg/ml, blood, sample collection 0 min, read-out: concentration in blood",0 ng/mL
same,concentration at 5 min,[1]; [15],0 ng/mL
same,concentration at 60 min,[1]; [15],0 ng/mL
same,concentration at 120 min,[1]; [15],0 ng/mL
same,concentration at 1440 min,"[1]; whole blood, 2 mg/ml, blood, sample collection 1440 min, read-out: concentration in blood",0 ng/mL
same,concentration in pancreas,"[1]; pancreas, sample collection 240 min",476 ng/mL and 7372 ng/mL and 2018 ng/mL
same,concentration in pancreas,"[1]; pancreas, sample collection 360 min",0 ng/mL and 1720 ng/mL and 911 ng/mL
same,concentration in pancreas,"[1]; pancreas, sample collection 480 min",0 ng/mL and 176 ng/mL and 625 ng/mL
same,concentration in pancreas,"[1]; pancreas, sample collection 1440 min",0 ng/mL
same,concentration in plasma,"[1]; plasma, sample collection 0 min",0 ng/mL
same,concentration in plasma,"[1]; plasma, sample collection 240 min",0 ng/mL
same,concentration in plasma,"[1]; plasma, sample collection 360 min",0 ng/mL
same,concentration in plasma,"[1]; plasma, sample collection 480 min",0 ng/mL
same,concentration in plasma,"[1]; plasma, sample collection 1440 min",0 ng/mL
same,Potassium Channel hERG (human)- [3H] Dofetilide: inhibition of radioligand binding,[2],-2.7%
same,inhibition at 10 µM,[3],10.4%
same,inhibition at 10 µM,[4],2.3%
same,inhibition at 10 µM,[5],-2%
same,inhibition at 10 µM,[6],4.8%
same,CaOx deposition score [1-10] (Pizzolato staining),[7],3 and 6 and 4
same,Density of neutrophils,[8],highly significant decreases
same,Extravasation of neutrophils,[8],highly significant reductions
same,Neutrophil rolling velocities,[8],significant increases
same,Rate of neutrophil recruitment to the graft,[8],did not alter
same,inhibition at 10 µM,[9],-4.9%
same,KV channel ($): inhibition of radioligand binding,[10],1.7%
